The test system of this assay is B6C3F1 mice, B16 melanoma ip, median survival T/C. As to the kind of experiment: NCI In Vivo Anticancer Drug Screen. Data for tumor model B16 Melanoma (intraperitoneal) in B6C3F1 mice. To be noted: endpoint: median survival time, schedule: Q01DX009 (ip), higher = longer survival. A digest of the protocol: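 Mice bearing transplanted tumor were dosed with compound or vehicle, and survival was recorded. Activity is expressed as the treated-group measurement (T) divided by the vehicle control measurement (C).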

Where [1] appears, read: dose: 3.12 mg/kg/injection, vehicle: saline with Tween-80.
Where [2] appears, read: dose: 6.25 mg/kg/injection, vehicle: saline with Tween-80.
Where [3] appears, read: dose: 6.25 mg/kg/injection, vehicle: saline.
[4] abbreviates: dose: 12.5 mg/kg/injection, vehicle: saline with Tween-80.
[5] abbreviates: dose: 12.5 mg/kg/injection, vehicle: saline.
[6] abbreviates: dose: 25.0 mg/kg/injection, vehicle: saline.
Setting [7] is: dose: 25.0 mg/kg/injection, vehicle: saline with Tween-80.
Setting [8] is: dose: 50.0 mg/kg/injection, vehicle: saline with Tween-80.
The mark [9] stands for this setting: dose: 100.0 mg/kg/injection, vehicle: saline with Tween-80.
Where [10] appears, read: dose: 200.0 mg/kg/injection, vehicle: saline with Tween-80.
The mark [11] stands for this setting: dose: 100.0 mg/kg/injection, vehicle: Klucel (hydroxypropylcellulose) (HPC).
[12] abbreviates: dose: 200.0 mg/kg/injection, vehicle: Klucel (hydroxypropylcellulose) (HPC).
[13] abbreviates: dose: 400.0 mg/kg/injection, vehicle: Klucel (hydroxypropylcellulose) (HPC).
The mark [14] stands for this setting: dose: 100.0 mg/kg/injection, vehicle: saline.
[15] abbreviates: dose: 200.0 mg/kg/injection, vehicle: saline.
[16] abbreviates: dose: 400.0 mg/kg/injection, vehicle: saline.
[17] abbreviates: dose: 3.12 mg/kg/injection, vehicle: saline.
Where [18] appears, read: dose: 25.0 mg/kg/injection, vehicle: Klucel (hydroxypropylcellulose) (HPC).
[19] abbreviates: dose: 50.0 mg/kg/injection, vehicle: Klucel (hydroxypropylcellulose) (HPC).
The mark [20] stands for this setting: dose: 50.0 mg/kg/injection, vehicle: saline.
Setting [21] is: dose: 12.5 mg/kg/injection, vehicle: Klucel (hydroxypropylcellulose) (HPC).

“And” between values parts separate entries of the source, which are not always exact repeats. Identical values can stand only once. Toxic doses and inconclusive results are not listed. Where a SMILES comes first, the peptide text is derived from it.

Take `CC1=C(C)C(=O)O[C@@H]([C@](C)(O)[C@]2(O)CC[C@@]3(O)[C@@H]4C[C@H]5O[C@]56CC=CC(=O)[C@]6(C)[C@H]4CC[C@]23C)C1`: the T/C (dose: 1.56 mg/kg/injection, vehicle: saline with Tween-80) was 121 % of control; the T/C under setting [1] is 108 % of control; the T/C under setting [2] is 120 % of control; the T/C under setting [3] is 120 % of control; the T/C under setting [4] was 88 % of control; the T/C under setting [5] was 153 % of control. The T/C under setting [6] is 175 % of control.

With `Cc1cc(Br)c2nsnc2c1[N+](=O)[O-]`, the T/C under setting [7] was 95 % of control, the T/C under setting [8] is 95 % of control, the T/C under setting [9] was 103 % of control and the T/C under setting [10] is 90 % of control.

In the case of `CSCCC(NC(=O)CNC(=O)CNC(=O)OCc1ccccc1)C(=O)O` (configuration not stated) (HELM PEPTIDE1{[O=C(OCc1ccccc1)[*:2]].G.G.[CSCCC(N[*:1])C(=O)O]}$$$$V2.0), the T/C is 100 % of control under setting [11], 103 % of control under setting [12] and 108 % of control under setting [13].

For the molecule `Cn1ccc(=Nc2ccc(NC(=O)c3ccc(N=c4ccn(C)c5ccc([N+](=O)[O-])cc45)cc3[N+](=O)[O-])cc2)cc1`, the T/C is, setting by setting: under setting [4], 105 % of control; under setting [7], 93 % of control; under setting [8], 91 % of control; under setting [9], 94 % of control; under setting [10], 96 % of control; (dose: 400.0 mg/kg/injection, vehicle: saline with Tween-80) 96 % of control.

Turning to `CCOC(=O)C1=C(C)NC(C)=C(C(=O)OCC)C1C`, the T/C was 94 % of control under setting [14], 95 % of control under setting [15] and 91 % of control under setting [16].

Regarding `N=C(N)c1ccc(/C=C/c2ccc(C(=N)N)cc2)cc1`, the T/C reads like this: (dose: 16.0 mg/kg/injection, vehicle: Klucel (hydroxypropylcellulose) (HPC)) 101 % of control; (dose: 32.0 mg/kg/injection, vehicle: Klucel (hydroxypropylcellulose) (HPC)) 116 % of control; (dose: 32.0 mg/kg/injection, vehicle: saline with Tween-80) 101 % of control; (dose: 64.0 mg/kg/injection, vehicle: Klucel (hydroxypropylcellulose) (HPC)) 97 % of control; (dose: 64.0 mg/kg/injection, vehicle: saline with Tween-80) 101 % of control.

For the molecule `CCOc1ccc(-c2nc3ccc(-c4nc5ccc(N6CCN(C)CC6)cc5[nH]4)cc3[nH]2)cc1`, the T/C (dose: 1.56 mg/kg/injection, vehicle: saline) is 113 % of control; the T/C under setting [17] was 114 % of control; the T/C under setting [3] was 110 % of control; the T/C under setting [5] was 110 % of control.

Take `CC(C)CC(NC(=O)OCC1c2ccccc2-c2ccccc21)C(=O)O` (configuration not stated): the T/C by setting is: under setting [18], 102 % of control; under setting [11], 122 % of control and 101 % of control.

Take `Cc1cc([NH-])c([NH-])cc1C.[Cl][Pt+2][Cl]`: the T/C runs as follows: (dose: 1.25 mg/kg/injection, vehicle: saline with Tween-80) 112 % of control; (dose: 10.0 mg/kg/injection, vehicle: saline with Tween-80) 161 % of control.

For the molecule `OC1CCCC2CCC[N-]C12.OC1CCCC2CCC[N-]C12.[Mn+2]` (configuration not stated), the T/C runs as follows: under setting [18], 109 % of control; under setting [19], 102 % of control.

For the molecule `ClC(Cl)(Cl)Sn1cccn1`, the T/C is, setting by setting: under setting [1], 103 % of control; under setting [2], 87 % of control; under setting [20], 87 % of control.

Turning to `CCN(CC)C(=S)S`, the T/C under setting [20] was 92 % of control; the T/C (dose: 50.0 mg/kg/injection, vehicle: sodium bicarbonate) is 105 % of control; the T/C under setting [14] was 96 % of control; the T/C (dose: 100.0 mg/kg/injection, vehicle: sodium bicarbonate) was 92 % of control; the T/C under setting [15] is 102 % of control; the T/C (dose: 200.0 mg/kg/injection, vehicle: sodium bicarbonate) was 105 % of control. Further, the T/C is, setting by setting: under setting [16], 94 % of control; (dose: 400.0 mg/kg/injection, vehicle: sodium bicarbonate) 105 % of control; (dose: 800.0 mg/kg/injection, vehicle: saline) 95 % of control; (dose: 800.0 mg/kg/injection, vehicle: sodium bicarbonate) 95 % of control.

Regarding `O=C(O)C1(NO)CCCCC1`, the T/C is 103 % of control and 105 % of control under setting [21]; 111 % of control and 98 % of control under setting [18]; 111 % of control and 105 % of control under setting [19]; 110 % of control and 107 % of control under setting [11]; 103 % of control and 108 % of control under setting [12]; 113 % of control and 106 % of control under setting [13].

For `CCCCNC(C)[C@]1(O)Cc2c(O)c3c(c(O)c2[C@@H](OC2CC(N)C(O)C(C)O2)C1)C(=O)c1c(OC)cccc1C3=O` (some centres not stated), the T/C runs as follows: (dose: 0.75 mg/kg/injection, vehicle: saline) 162 % of control and 163 % of control; (dose: 1.5 mg/kg/injection, vehicle: saline) 211 % of control and 232 % of control; (dose: 3.0 mg/kg/injection, vehicle: saline) 235 % of control and 333 % of control; (dose: 6.0 mg/kg/injection, vehicle: saline) 229 % of control and 95 % of control.

As to `C=C(C(=O)O)C(N)C(=O)O` (configuration not stated), the T/C is, setting by setting: under setting [6], 97 % of control; under setting [20], 106 % of control; under setting [14], 106 % of control; under setting [15], 90 % of control.

Take `O=c1[nH]c2c(ccc3cnccc32)c2c1CCC2`: the T/C was 97 % of control under setting [17], 113 % of control under setting [3] and 119 % of control under setting [5].

Regarding `COc1cc2cc(c1Cl)N(C)C(=O)/C=C/C1(C)OC1C(C)C1CC(O)(NC(=O)O1)C(OC)/C=C/C=C(\C)C2OC` (configuration not stated), the T/C is 117 % of control (dose: 4.0 micrograms/kg/injection, vehicle: distilled water + alcohol); 105 % of control (dose: 8.0 micrograms/kg/injection, vehicle: distilled water + alcohol); 112 % of control (dose: 16.0 micrograms/kg/injection, vehicle: distilled water + alcohol).

Take `ClCc1ccc(Oc2ccc(CCl)cc2)cc1`: the T/C (dose: 3.12 mg/kg/injection, vehicle: Klucel (hydroxypropylcellulose) (HPC)) is 101 % of control; the T/C (dose: 6.25 mg/kg/injection, vehicle: Klucel (hydroxypropylcellulose) (HPC)) is 98 % of control; the T/C under setting [21] is 107 % of control; the T/C under setting [18] was 112 % of control; the T/C under setting [19] was 93 % of control.

In the case of `CC(C)(C)OC(=O)NC(Cc1c[nH]c2ccccc12)C(=O)O` (configuration not stated), the T/C is 94 % of control (dose: 100.0 mg/kg/injection, vehicle: distilled water + alcohol) and 94 % of control (dose: 200.0 mg/kg/injection, vehicle: distilled water + alcohol).

As to `NC(Cn1ccc(=O)c(O)c1)C(=O)O` (configuration not stated), the T/C was 107 % of control under setting [5]; 111 % of control under setting [6]; 101 % of control under setting [20]; 105 % of control under setting [14]; 105 % of control under setting [15].

In the case of `Cc1c2cc[n+](C)cc2c(C)c2c1[nH]c1ccc(O)cc12`, the T/C (dose: 0.12 mg/kg/injection, vehicle: water) was 107 % of control; the T/C (dose: 0.13 mg/kg/injection, vehicle: water) is 117 % of control; the T/C (dose: 1.25 mg/kg/injection, vehicle: saline) is 123 % of control; the T/C (dose: 2.5 mg/kg/injection, vehicle: saline) was 116 % of control.

These data come from PubChem BioAssay AID200 (DTP/NCI, 2004).
